Results published in patent US10653717B2, “Antibiotic compositions” (priority 2016, dated 2020).

How the values were obtained:
[1] = test system: ECL-2: E. cloacae 2301#; assay: MIC of silver with antibiotics on clinical isolated MDR Gram-negative bacteria; assay type: cell-based, Enterobacter cloacae; details: antibiotic 4 μM
Procedure: (§1) There are five clinically most difficult-to-treat MDR Gram-negative pathogen species: Klebsiella pneumonia, Acinetobacter baumannii, Pseudomonas aeruginosa, Enterobacter cloacae and Escherichia coli. One strain from each species was isolated, and overnight cultures were diluted 1:1000 times in LB medium, and treated with serial concentrations of Ag^+ and antibiotics in combinations for 24 h (Table 10).
(§2) Five clinical isolated MDR Gram-negative strains were grown until an OD600 nm of 0.4, and were diluted 1:1,000 into 100 μl LB medium in 96 micro-well plates. […] The cultures treated with the same serial dilutions of 100 μl ebselen and silver nitrate were used as the positive control.

[2] = test system: KP-2: K. pneumonia subsp. pneumonia 0322#; assay: as above; assay type: cell-based, Klebsiella pneumonia; details: antibiotic 4 μM
Procedure: as §1, §2

[3] = test system: PA-1: Pseudomonas aeruginosa 1298#; assay: as above; assay type: cell-based; details: antibiotic 4 μM
Procedure: as §1, §2

[4] = test system: AB-1: Acinetobacter baumannii H#; assay: as above; assay type: cell-based; details: antibiotic 4 μM
Procedure: as §1, §2

[5] = test system: ECO-1: Escherichia coli 1139#; assay: as above; assay type: cell-based; details: antibiotic 4 μM
Procedure: as §1, §2

[6] = test system: ECO-3: E. coli ZY-1; assay: Drug sensitivity of clinical isolated strain; assay type: cell-based, Escherichia coli; also: key: R: resistant; S: sensitive
[7] = test system: E. coli; assay: Degree of synergy, Bliss Independence Model; assay type: cell-based, Escherichia coli; details: 5 μM AgNO3 with 80 μM antibiotic; 1 and 4 h
[8] = test system: PA-2: P. aeruginose 0009#; assay: Drug sensitivity of clinical isolated strain; assay type: cell-based, Pseudomonas aeruginosa; details: PA-2 (Table 3); also: key: R: resistant; S: sensitive
[9] = test system: GSH; assay: GSH amount in treated E. coli cell extracts, GR-coupled DTNB reduction; assay type: cell-based, Escherichia coli; details: 5 μM Ag^+ and 80 μM antibiotic; 10 min; compared with antibiotics themselves
[10] = test system: PA-1: Pseudomonas aeruginose 1298#; assay: Drug sensitivity of clinical isolated strain; assay type: cell-based, Pseudomonas aeruginosa; also: key: R: resistant; S: sensitive
[11] = test system: ECL-1: Enterobacter cloacae 0431#; assay: Drug sensitivity of clinical isolated strain; assay type: cell-based; details: ECL-1 (Table 3); also: key: R: resistant; S: sensitive
[12] = test system: ECO-2: E. coli 2219#; assay: Drug sensitivity of clinical isolated strain; assay type: cell-based, Escherichia coli; details: ECO-2 (Table 3); also: key: R: resistant; S: sensitive
[13] = test system: KP-1: Klebsiella pneumonia subsp. pneumonia 13#; assay: Drug sensitivity of clinical isolated strain; assay type: cell-based; details: KP-1 (Table 3); also: key: R: resistant; S: sensitive
[14] = test system: wild type E. coli DHB4; assay: MIC of nine antibiotics and silver in combinations on E. coli DHB4; assay type: cell-based, Escherichia coli; details: 24 h
Procedure: E. coli DHB4 overnight cultures were diluted 1:1000 times in Luria Bertani (LB) medium, and treated with serial dilutions of ionic silver (Ag^+) as a nitrate salt and 9 antibiotics in combinations, separately, for 24 h.
E. coli DHB4 from frozen stock were grown overnight at 37° C., 400 rpm. The overnight culture was diluted 1:100 with 5 ml of LB medium in 15 ml tubes and incubated at 37° C. at 400 rpm. Cells were grown until an OD600 nm of 0.4 and were used for antibiotic treatment. Briefly, cells were diluted 1:1,000 into 100 μl of LB medium in 96 micro-well plates. […] The minimum inhibition concentration (MIC) was determined as the lowest concentration of drugs that inhibited 90% of growth compared to the untreated cells after 24 h culture at 37° C. The cultures treated with the same serial dilutions of 100 μl ebselen and silver nitrate were used as the positive control.

[15] = test system: AB-1: Acinetobacter baumannii H#; assay: Drug sensitivity of clinical isolated strain; assay type: cell-based; also: key: R: resistant; S: sensitive
[16] = test system: ECL-2: E. cloacae 2301#; assay: Drug sensitivity of clinical isolated strain; assay type: cell-based, Enterobacter cloacae; also: key: R: resistant; S: sensitive
[17] = test system: ECO-1: Escherichia coli 1139#; assay: Drug sensitivity of clinical isolated strain; assay type: cell-based; also: key: R: resistant; S: sensitive
[18] = test system: KP-2: K. pneumonia subsp. pneumonia 0322#; assay: Drug sensitivity of clinical isolated strain; assay type: cell-based, Klebsiella pneumonia; also: key: R: resistant; S: sensitive
[19] = test system: AB-2: A. baumannii 0361#; assay: Drug sensitivity of clinical isolated strain; assay type: cell-based, Acinetobacter baumannii; details: AB-2 (Table 3); also: key: R: resistant; S: sensitive

Compound | MIC of silver in the presence of different antibiotics [1] [µM] | MIC of silver in the presence of different antibiotics [2] [µM] | MIC of silver in the presence of different antibiotics [3] [µM] | MIC of silver in the presence of different antibiotics [4] [µM] | MIC of silver in the presence of different antibiotics [5] [µM] | Drug sensitivity ([6]; E. coli ZY-1 (Table 7)) | Drug sensitivity ([6]; ECO-3 (Table 3)) | Drug sensitivity [8] | Drug sensitivity ([10]; PA-1 (Table 3)) | Drug sensitivity ([10]; PA-1 (table of Example 3)) | Drug sensitivity [11] | Drug sensitivity [12] | Drug sensitivity [13] | Drug sensitivity ([15]; AB-1 (Table 3)) | Drug sensitivity ([15]; AB-1 (table of Example 3)) | Drug sensitivity ([16]; ECL-2 (Table 3)) | Drug sensitivity ([16]; ECL-2 (table of Example 3)) | Drug sensitivity ([17]; ECO-1 (Table 3)) | Drug sensitivity ([17]; ECO-1 (table of Example 3)) | Drug sensitivity [19] | further results
CN[C@@H]1[C@@H](O)[C@@H](O[C@@H]2[C@@H](O)[C@H](O[C@H]3O[C@H]([C@@H](C)O)[C@@H](O)[C@H](O)[C@H]3N)[C@@H](N)C[C@H]2N)OC[C@]1(C)O [Geneticin] | 160 | 160 | 80 | 80 | 40 | – | – | – | – | – | – | – | – | – | – | – | – | – | – | – | –
NC[C@H]1O[C@H](O[C@H]2[C@H](O)[C@@H](O[C@H]3O[C@H](CO)[C@@H](O)[C@H](N)[C@H]3O)[C@H](N)C[C@@H]2N)[C@H](O)[C@@H](O)[C@@H]1O [Kanamycin] | 160 | 160 | 80 | 80 | 40 | – | – | – | – | – | – | – | – | – | – | – | – | – | – | – | –
Gentamicin | 160 | 160 | 40 | 80 | 40 | S | S | R | S | S | R | R | R | R | R | R | R | S | S | R | degree of synergy with Ag^+ (Bliss model) [7]: synergistic combinations; total GSH amount in cell extracts [9]: slightly deplete; Antibacterial effect as MIC of antibiotic and silver ([14]; listed as head Silver (μM) 0): 40 µM; Antibacterial effect as MIC of antibiotic and silver ([14]; listed as head Silver (μM) 1): 20 µM; Antibacterial effect as MIC of antibiotic and silver ([14]; listed as head Silver (μM) 2): 2.5 µM; Antibacterial effect as MIC of antibiotic and silver ([14]; listed as head Silver (μM) 4): 1.25 µM; activity with silver on E. coli DHB4 growth ([14]; serial dilutions of Ag^+ and antibiotic): synergistic activity; Drug sensitivity ([18]; KP-2 (Table 3)): R; Drug sensitivity ([18]; KP-2 (table of Example 3)): R
CN(C)[C@@H]1C(O)=C(C(N)=O)C(=O)[C@@]2(O)C(O)=C3C(=O)c4c(O)cccc4[C@@](C)(O)[C@H]3C[C@@H]12 [Tetracycline] | – | – | 80 | 80 | 80 | R | S | R | R | R | R | S | – | R | R | R | R | R | R | R | –
C[C@H]1COc2c(N3CCN(C)CC3)c(F)cc3c(=O)c(C(=O)O)cn1c23 [Levofloxacin] | – | – | – | – | – | S | – | R | R | R | R | R | R | R | R | R | R | R | R | R | Drug sensitivity ([18]; KP-2 (Table 3)): R; Drug sensitivity ([18]; KP-2 (table of Example 3)): R
